# Experimental data from US20220132847A1, “CINNOLINIUM COMPOUNDS FOR USE IN A METHOD OF CONTROLLING UNWANTED PLANT GROWTH” (SYNGENTA CROP PROTECTION AG, priority 2019, published 2022).
# Test system: Amaranthus palmeri (AMAPA)
# Experiment: Post-emergence efficacy, glasshouse
# Assay type: in vivo
# Conditions: Amaranthus palmeri, post-emergence, 312 h, Application Rate 500 g/Ha; evaluated after 13 days; 100=total damage to plant, 0=no damage to plant; read-out: Control of weed species after post-emergence application, AMAPA
# Protocol: (§1) Seeds of a variety of test species were sown in standard soil in pots. After cultivation for 14 days (post-emergence) under controlled conditions in a glasshouse (at 24/16° C., day/night; 14 hours light; 65% humidity), the plants were sprayed with an aqueous spray solution derived from the dissolution of the technical active ingredient formula (I) in a small amount of acetone and a special solvent and emulsifier mixture referred to as IF50 (11.12% Emulsogen EL360™+44.44% N-methylpyrrolidone+44.44% Dowanol DPM glycol ether), to create a 50 g/l solution which was then diluted to required concentration using 0.25% or 1% Empicol ESC70 (Sodium lauryl ether sulphate)+1% ammonium sulphate in water as diluent.
# (§2) The test plants were then grown in a glasshouse under controlled conditions (at 24/16° C., day/night; 14 hours light; 65% humidity) and watered twice daily. After 13 days the test was evaluated (100=total damage to plant; 0=no damage to plant).
# (§3) Ipomoea hederacea (IPOHE), Euphorbia heterophylla (EPHHL), Chenopodium album (CHEAL), Amaranthus palmeri (AMAPA), Lolium perenne (LOLPE), Digitaria sanguinalis (DIGSA), Eleusine indica (ELEIN), Echinochloa crus-galli (ECHCG), Setaria faberi (SETFA)
row,Compound,pest or weed control at 500 g/ha [%]
1,"CCOP(=O)(O)CCc1c[n+](C)nc2ccccc12 [Compound A54, ethoxy-[2-(2-methylcinnolin-2-ium-4-yl)ethyl]phosphinic acid 2,2,2-trifluoroacetate]",30

# Same assay, conditions: Amaranthus palmeri, post-emergence, 312 h; Application Rate 1000 g/Ha; evaluated after 13 days; 100=total damage to plant, 0=no damage to plant; read-out: Control of weed species after post-emergence application, AMAPA
row,Compound,pest or weed control at 1000 g/ha [%]
1,CCCP(=O)([O-])c1c[n+](C)nc2ccccc12 [Compound A49],100
2,"CONC(=O)c1c[n+](C)nc2ccccc12 [Compound A4, N-methoxy-2-methyl-cinnolin-2-ium-4-carboxamide 2,2,2-trifluoroacetate]",10

# Test system: Chenopodium album (CHEAL)
# Experiment: Post-emergence efficacy, glasshouse
# Assay type: in vivo
# Conditions: Chenopodium album, post-emergence, 312 h, Application Rate 500 g/Ha; evaluated after 13 days; 100=total damage to plant, 0=no damage to plant; read-out: Control of weed species after post-emergence application, CHEAL
# Protocol: as §1, §2, §3
row,Compound,pest or weed control at 500 g/ha [%]
1,"CCOP(=O)(O)CCc1c[n+](C)nc2ccccc12 [Compound A54, ethoxy-[2-(2-methylcinnolin-2-ium-4-yl)ethyl]phosphinic acid 2,2,2-trifluoroacetate]",20

# Same assay, conditions: Chenopodium album, post-emergence, 312 h; Application Rate 1000 g/Ha; evaluated after 13 days; 100=total damage to plant, 0=no damage to plant; read-out: Control of weed species after post-emergence application, CHEAL
row,Compound,pest or weed control at 1000 g/ha [%]
1,CCCP(=O)([O-])c1c[n+](C)nc2ccccc12 [Compound A49],90
2,"CONC(=O)c1c[n+](C)nc2ccccc12 [Compound A4, N-methoxy-2-methyl-cinnolin-2-ium-4-carboxamide 2,2,2-trifluoroacetate]",40

# Test system: Digitaria sanguinalis (DIGSA)
# Experiment: Post-emergence efficacy, glasshouse
# Assay type: in vivo
# Conditions: Digitaria sanguinalis, post-emergence, 312 h, Application Rate 500 g/Ha; evaluated after 13 days; 100=total damage to plant, 0=no damage to plant; read-out: Control of weed species after post-emergence application, DIGSA
# Protocol: as §1, §2, §3
row,Compound,pest or weed control at 500 g/ha [%]
1,"CCOP(=O)(O)CCc1c[n+](C)nc2ccccc12 [Compound A54, ethoxy-[2-(2-methylcinnolin-2-ium-4-yl)ethyl]phosphinic acid 2,2,2-trifluoroacetate]",40

# Same assay, conditions: Digitaria sanguinalis, post-emergence, 312 h; Application Rate 1000 g/Ha; evaluated after 13 days; 100=total damage to plant, 0=no damage to plant; read-out: Control of weed species after post-emergence application, DIGSA
row,Compound,pest or weed control at 1000 g/ha [%]
1,CCCP(=O)([O-])c1c[n+](C)nc2ccccc12 [Compound A49],100
2,"CONC(=O)c1c[n+](C)nc2ccccc12 [Compound A4, N-methoxy-2-methyl-cinnolin-2-ium-4-carboxamide 2,2,2-trifluoroacetate]",0

# Test system: Echinochloa crus-galli (ECHCG)
# Experiment: Post-emergence efficacy, glasshouse
# Assay type: in vivo
# Conditions: Echinochloa crus-galli, post-emergence, 312 h, Application Rate 500 g/Ha; evaluated after 13 days; 100=total damage to plant, 0=no damage to plant; read-out: Control of weed species after post-emergence application, ECHCG
# Protocol: as §1, §2, §3
row,Compound,pest or weed control at 500 g/ha [%]
1,"CCOP(=O)(O)CCc1c[n+](C)nc2ccccc12 [Compound A54, ethoxy-[2-(2-methylcinnolin-2-ium-4-yl)ethyl]phosphinic acid 2,2,2-trifluoroacetate]",30

# Same assay, conditions: Echinochloa crus-galli, post-emergence, 312 h; Application Rate 1000 g/Ha; evaluated after 13 days; 100=total damage to plant, 0=no damage to plant; read-out: Control of weed species after post-emergence application, ECHCG
row,Compound,pest or weed control at 1000 g/ha [%]
1,CCCP(=O)([O-])c1c[n+](C)nc2ccccc12 [Compound A49],70
2,"CONC(=O)c1c[n+](C)nc2ccccc12 [Compound A4, N-methoxy-2-methyl-cinnolin-2-ium-4-carboxamide 2,2,2-trifluoroacetate]",10

# Test system: Eleusine indica (ELEIN)
# Experiment: Post-emergence efficacy, glasshouse
# Assay type: in vivo
# Conditions: Eleusine indica, post-emergence, 312 h, Application Rate 500 g/Ha; evaluated after 13 days; 100=total damage to plant, 0=no damage to plant; read-out: Control of weed species after post-emergence application, ELEIN
# Protocol: as §1, §2, §3
row,Compound,pest or weed control at 500 g/ha [%]
1,"CCOP(=O)(O)CCc1c[n+](C)nc2ccccc12 [Compound A54, ethoxy-[2-(2-methylcinnolin-2-ium-4-yl)ethyl]phosphinic acid 2,2,2-trifluoroacetate]",30

# Same assay, conditions: Eleusine indica, post-emergence, 312 h; Application Rate 1000 g/Ha; evaluated after 13 days; 100=total damage to plant, 0=no damage to plant; read-out: Control of weed species after post-emergence application, ELEIN
row,Compound,pest or weed control at 1000 g/ha [%]
1,CCCP(=O)([O-])c1c[n+](C)nc2ccccc12 [Compound A49],100
2,"CONC(=O)c1c[n+](C)nc2ccccc12 [Compound A4, N-methoxy-2-methyl-cinnolin-2-ium-4-carboxamide 2,2,2-trifluoroacetate]",20

# Test system: Euphorbia heterophylla (EPHHL)
# Experiment: Post-emergence efficacy, glasshouse
# Assay type: in vivo
# Conditions: Euphorbia heterophylla, post-emergence, 312 h, Application Rate 500 g/Ha; evaluated after 13 days; 100=total damage to plant, 0=no damage to plant; read-out: Control of weed species after post-emergence application, EPHHL
# Protocol: as §1, §2, §3
row,Compound,pest or weed control at 500 g/ha [%]
1,"CCOP(=O)(O)CCc1c[n+](C)nc2ccccc12 [Compound A54, ethoxy-[2-(2-methylcinnolin-2-ium-4-yl)ethyl]phosphinic acid 2,2,2-trifluoroacetate]",80

# Same assay, conditions: Euphorbia heterophylla, post-emergence, 312 h; Application Rate 1000 g/Ha; evaluated after 13 days; 100=total damage to plant, 0=no damage to plant; read-out: Control of weed species after post-emergence application, EPHHL
row,Compound,pest or weed control at 1000 g/ha [%]
1,CCCP(=O)([O-])c1c[n+](C)nc2ccccc12 [Compound A49],100
2,"CONC(=O)c1c[n+](C)nc2ccccc12 [Compound A4, N-methoxy-2-methyl-cinnolin-2-ium-4-carboxamide 2,2,2-trifluoroacetate]",50

# Test system: Ipomoea hederacea (IPOHE)
# Experiment: Post-emergence efficacy, glasshouse
# Assay type: in vivo
# Conditions: Ipomoea hederacea, post-emergence, 312 h, Application Rate 500 g/Ha; evaluated after 13 days; 100=total damage to plant, 0=no damage to plant; read-out: Control of weed species after post-emergence application, IPOHE
# Protocol: as §1, §2, §3
row,Compound,pest or weed control at 500 g/ha [%]
1,"CCOP(=O)(O)CCc1c[n+](C)nc2ccccc12 [Compound A54, ethoxy-[2-(2-methylcinnolin-2-ium-4-yl)ethyl]phosphinic acid 2,2,2-trifluoroacetate]",20

# Same assay, conditions: Ipomoea hederacea, post-emergence, 312 h; Application Rate 1000 g/Ha; evaluated after 13 days; 100=total damage to plant, 0=no damage to plant; read-out: Control of weed species after post-emergence application, IPOHE
row,Compound,pest or weed control at 1000 g/ha [%]
1,CCCP(=O)([O-])c1c[n+](C)nc2ccccc12 [Compound A49],90
2,"CONC(=O)c1c[n+](C)nc2ccccc12 [Compound A4, N-methoxy-2-methyl-cinnolin-2-ium-4-carboxamide 2,2,2-trifluoroacetate]",20

# Test system: Lolium perenne (LOLPE)
# Experiment: Post-emergence efficacy, glasshouse
# Assay type: in vivo
# Conditions: Lolium perenne, post-emergence, 312 h, Application Rate 500 g/Ha; evaluated after 13 days; 100=total damage to plant, 0=no damage to plant; read-out: Control of weed species after post-emergence application, LOLPE
# Protocol: as §1, §2, §3
row,Compound,pest or weed control at 500 g/ha [%]
1,"CCOP(=O)(O)CCc1c[n+](C)nc2ccccc12 [Compound A54, ethoxy-[2-(2-methylcinnolin-2-ium-4-yl)ethyl]phosphinic acid 2,2,2-trifluoroacetate]",20

# Same assay, conditions: Lolium perenne, post-emergence, 312 h; Application Rate 1000 g/Ha; evaluated after 13 days; 100=total damage to plant, 0=no damage to plant; read-out: Control of weed species after post-emergence application, LOLPE
row,Compound,pest or weed control at 1000 g/ha [%]
1,CCCP(=O)([O-])c1c[n+](C)nc2ccccc12 [Compound A49],30
2,"CONC(=O)c1c[n+](C)nc2ccccc12 [Compound A4, N-methoxy-2-methyl-cinnolin-2-ium-4-carboxamide 2,2,2-trifluoroacetate]",0

# Test system: Setaria faberi (SETFA)
# Experiment: Post-emergence efficacy, glasshouse
# Assay type: in vivo
# Conditions: Setaria faberi, post-emergence, 312 h, Application Rate 500 g/Ha; evaluated after 13 days; 100=total damage to plant, 0=no damage to plant; read-out: Control of weed species after post-emergence application, SETFA
# Protocol: as §1, §2, §3
row,Compound,pest or weed control at 500 g/ha [%]
1,"CCOP(=O)(O)CCc1c[n+](C)nc2ccccc12 [Compound A54, ethoxy-[2-(2-methylcinnolin-2-ium-4-yl)ethyl]phosphinic acid 2,2,2-trifluoroacetate]",30

# Same assay, conditions: Setaria faberi, post-emergence, 312 h; Application Rate 1000 g/Ha; evaluated after 13 days; 100=total damage to plant, 0=no damage to plant; read-out: Control of weed species after post-emergence application, SETFA
row,Compound,pest or weed control at 1000 g/ha [%]
1,CCCP(=O)([O-])c1c[n+](C)nc2ccccc12 [Compound A49],90
2,"CONC(=O)c1c[n+](C)nc2ccccc12 [Compound A4, N-methoxy-2-methyl-cinnolin-2-ium-4-carboxamide 2,2,2-trifluoroacetate]",10
